Experimental data reported in ChEMBL document CHEMBL1140614, “In silico and in vitro filters for the fast estimation of skin permeation and distribution of new chemical entities” (J Med Chem, 2007).

How the values were obtained:
[1] = test system: Zone of skin; settings: human
[2] = physchem; settings: octanol/water
[3] = PAMPA, 7 h
[4] = octanol/water

## Cc1cc(=O)n(-c2ccccc2)n1C [ANTIPYRINE]
[1]
  log Kp: -7.74

## CN[C@@H](C)[C@H](O)c1ccccc1 [EPHEDRINE]
[1]
  log Kp: -5.75

## CCC1(c2ccccc2)C(=O)NC(=O)NC1=O [PHENOBARBITAL]
[1]
  log Kp: -6.9

## O=[N+]([O-])c1ccc(O)cc1 [P-NITROPHENOL]
[1]
  log Kp: -5.81

## CCc1ccc(O)cc1
[1]
  log Kp: -5.01
[2]
  logP: 2.47

## Nc1cc([N+](=O)[O-])ccc1O [2-AMINO-4-NITROPHENOL]
[1]
  log Kp: -6.62

## Cn1c(=O)c2c(ncn2C)n(C)c1=O [CAFFEINE]
[1]
  log Kp: -7.56
[3]
  log Pe: -5.63

## O=C(OCc1ccccc1)c1cccnc1 [BENZYL NICOTINATE]
[1]
  log Kp: -5.35

## O=C(O)c1ccccc1O [SALYCILIC ACID]
[3]
  log Pe: -4.16

## O=C(O)CCCCc1ccccc1 [5-PHENYLVALERIC ACID]
[2]
  logP: 2.85

## C/C=C(/C(=C/C)c1ccc(O)cc1)c1ccc(O)cc1 [DIENESTROL]
[2]
  logP: 4.5

## Oc1ccccc1 [PHENOL]
[1]
  log Kp: -5.64
[3]
  log Pe: -4.14

## Cc1ccccc1O [ORTHOCRESOL]
[1]
  log Kp: -5.36
[2]
  logP: 1.94

## NC(=O)NS(=O)(=O)c1ccc(N)cc1 [SULFACARBAMIDE]
[2]
  logP: -1.1

## c1ccc2cnccc2c1 [ISOQUINOLINE]
[1]
  log Kp: -5.33

## CC(=O)[C@H]1CC[C@H]2[C@@H]3CCC4=CC(=O)CC[C@]4(C)[C@H]3CC[C@]12C [PROGESTERONE]
[1]
  log Kp: -5.08
[3]
  log Pe: -4.56

## CN1C(C(=O)Nc2ccccn2)=C(O)c2ccccc2S1(=O)=O [PIROXICAM]
[1]
  log Kp: -6.02

## Nc1ccc(S(=O)(=O)Nc2ncccn2)cc1 [SULFADIAZINE]
[3]
  log Pe: -6.2
[2]
  logP: -0.12

## CC(C(=O)O)c1cccc(C(=O)c2ccccc2)c1 (centres undefined) [KETOPROFEN]
[1]
  log Kp: -4.7

## C[C@]12CCC(=O)C=C1CC[C@@H]1[C@@H]2CC[C@@]2(C)[C@H]1CC[C@@]21CCC(=O)O1 [SPRIOLACTONE]
[2]
  logP: 2.26

## CCNc1nc(Cl)nc(NC(C)C)n1 [ATRAZINE]
[1]
  log Kp: -5.56

## c1ccncc1 [PYRIDINE]
[3]
  log Pe: -4.35

## CC(C)NCC(O)COc1cccc2ccccc12 (centres undefined) [PROPRANOLOL]
[3]
  log Pe: -4.25

## CN1CCC[C@H]1c1cccnc1 [NICOTINE]
[1]
  log Kp: -5.26
[3]
  log Pe: -4.58

## C[C@H]1C[C@H]2[C@@H]3CCC4=CC(=O)C=C[C@]4(C)[C@@]3(F)[C@@H](O)C[C@]2(C)[C@@]1(O)C(=O)CO [BETAMETHASONE]
[2]
  logP: 2.01

## Oc1ccc2ccccc2c1 [BETANAPHTHOL]
[1]
  log Kp: -5.11
[3]
  log Pe: -4.19

## CC(C(=O)O)c1ccc(-c2ccccc2)c(F)c1 (centres undefined) [FLURBIPROFEN]
[2]
  logP: 3.99

## O=C(O)c1ccccc1 [BENZOIC ACID]
[1]
  log Kp: -5.08

## Nc1ccc(S(=O)(=O)NC(=O)c2ccccc2)cc1 [SULFABENZAMIDE]
[2]
  logP: 1.46

## Oc1ccc(Cl)cc1 [PARACHLOROPHENOL]
[1]
  log Kp: -5

## O=C(O)Cc1ccccc1Nc1c(Cl)cccc1Cl [DICLOFENAC]
[1]
  log Kp: -5.3

## COc1ccc2c(c1)c(CC(=O)O)c(C)n2C(=O)c1ccc(Cl)cc1 [INDOMETHACIN]
[4]
  logP: 4.27
[1]
  log Kp: -5.39

## COC(=O)c1cccnc1 [METHYL NICOTINATE]
[1]
  log Kp: -6.04
[2]
  logP: 0.87

## Cc1ccc(C(C)C)c(O)c1 [THYMOL]
[1]
  log Kp: -4.83
